Test results taken from the RepoRT retention time repository (doi:10.1021/acs.analchem.2c02893).

Assay: RP, Thermo Scientific Acclaim RSLC 120 C18, 100 × 2.1 mm, 2.2 µm, 30 °C, 0.2 mL/min, estimated dead time 1.1 min; A: 90% water + 10% methanol + 0.01% formic acid + 5 mM ammonium formate, pH 3.61; B: methanol + 0.01% formic acid + 5 mM ammonium formate, pH 3.61; gradient (min/%B) 0/1 1/1 2/39 13/99.9 15/99.9 15.1/1 20.1/1
Details: stereoisomer not certain

SMILES	LC retention time [min]
CC(N)Cc1ccccc1F (configuration not stated) [Amphetamine (2-F-)]	4.24
CCN(N=O)C(C)Cc1cccc(C(F)(F)F)c1 (configuration not stated) [Fenfluramine-n-Nitroso]	9.38
CC(=NNC(=O)Nc1cc(F)cc(F)c1)c1ncccc1C(=O)O [Diflufenzopyr]	6.22
COc1cc(CCN)c(OC)cc1C [2 C-D]	5.34
CCN(CC)C(=O)C(Cl)=C(C)OP(=O)(OC)OC [Phosphamidon (Dimecron)]	6.27
O=C(O)CCCO [GHB Fragm 87]	1.95
CC(C)N1C(=O)c2ccccc2NS1(=O)=O [Bentazone]	5.22
CCCNC(C)Cc1ccccc1 (configuration not stated) [Amphetamine-N-Propyl]	4.83
CS(=O)(=O)NC(=O)c1cc(Oc2ccc(C(F)(F)F)cc2Cl)ccc1[N+](=O)[O-] [Fomesafen]	9.01
NCC(CC(=O)O)c1ccc(Cl)cc1 (configuration not stated) [Baclofen]	4.27
CCCc1ccc(C(=O)c2cn(CCC)c3ccccc23)c2ccccc12 [JWH-180]	12.7
Cc1cccc2sc3nncn3c12 [Tricyclazole]	5.93
COc1ccc2c3c1OC1C(O)CCC4C(C2)N(C)CCC341 (configuration not stated) [Codeine-Dihydro]	3.36
NC(=O)C(CCN1CCCCC1)(c1ccccc1)c1ccccc1 [Fenpipramide]	5.19
CCOP(=S)(OCC)Oc1cc(C)nc(N(CC)CC)n1 [Pirimiphos-ethyl]	12.3
CCOP(=O)(NC(C)C)Oc1ccc(S(C)(=O)=O)c(C)c1 (configuration not stated) [Fenamiphos - sulfone]	7.21
CNC(C)C(=O)c1ccc(Cl)cc1 (configuration not stated) [Clephedrone (4-Chloromethcathinone)]	4.91
COc1cc(SC(C)C)c(OC)cc1CCN [2C-T-4]	6.69
CCSC(=O)N1CCCCCC1 [Molinate]	9.89
OC(Cc1ccccc1Cl)(Cn1cncn1)C1(Cl)CC1 (configuration not stated) [Prothioconazole-desethio]	10.5
CC12CC1(C)C(=O)N(c1cc(Cl)cc(Cl)c1)C2=O (configuration not stated) [Procymidone]	10.2
O=S(=O)(Oc1ccc(Cl)cc1)c1ccc(Cl)cc1 [Chlorfenson.Ovex.chlorofenizon.ephirsulfonate.ovatron]	11.1

SMILES	LC retention time [min]
O=C1CN=C(c2ccccc2F)c2cc([N+](=O)[O-])ccc2N1 [Flunitrazepam-N-Desmethyl (Norflunitrazepam)]	7.35
CC1(C(=O)Nc2ccc(O)c(Cl)c2Cl)CCCCC1 [Fenhexamide]	10.1
CNC(C)C(=O)c1ccc(OC)cc1 (configuration not stated) [Methedrone]	4.16
CCCCCn1cc(C(=O)c2cccc3ccccc23)c2c(O)cccc21 [JWH-018-M-4-OH-Ind]	12.5
CCN(CC)CCOCCOC(=O)C1(c2ccccc2)CCCC1 [Pentoxyverine]	7.87
CNC(=O)Oc1cc(C)c(C)c(C)c1 [Trimethacarb (3.4.5-)]	8.1
CCOP(=S)(OCC)Oc1ccc(S(C)(=O)=O)cc1 [Fensulfothion-sulfon]	8.48
CCOCn1c(-c2ccc(Cl)cc2)c(C#N)c(Br)c1C(F)(F)F [Chlorfenapyr]	11.8
CNC(C)Cc1ccc2c(c1)OCO2 (configuration not stated) [MDMA]	4.18
CNC(C)Cc1ccc(F)cc1 (configuration not stated) [Amphetamine-4-F-Methyl (4-F-methamphetamine)]	4.43
CCC(C)CC(C)N (configuration not stated) [DMAA (Methylhexanamine)]	4.68
CC(C(=O)c1ccccc1)N(C)C (configuration not stated) [Cathinone-Dimethyl]	3.64
CC=C1CC(C)C(O)(CO)C(=O)OCC2=CCN3CCC(OC1=O)C23 (configuration not stated) [Retrorsine]	4.01
CN(C)S(=O)(=O)N(SC(F)(Cl)Cl)c1ccccc1 [Dichlofluanid]	10
CON(C)C(=O)Nc1ccc(Br)c(Cl)c1 [Chlorbromuron]	9.55
CCNc1nc(Cl)nc(NC(C)(C)C#N)n1 [Cyanazine]	6.55
CCCCCn1cc(C(=O)c2cccc3ccccc23)c2ccc(O)cc21 [JWH-018-M-6-OH-Ind]	11.2
CCOP(=S)(OCC)Oc1cnccn1 [Thionazin (Zinophos)]	8.35
Cc1cc(Cl)ccc1OC(C)C(=O)O (configuration not stated) [Mecoprop]	8.27
C=CC1(C)OC(=O)N(c2cc(Cl)cc(Cl)c2)C1=O (configuration not stated) [Vinclozolin]	10.6
CON(C)C(=O)Nc1ccc(Cl)cc1 [Monolinuron]	7.76
COC(=O)C(NC(=O)c1cn(CCCCCF)c2ccccc12)C(C)C (configuration not stated) [MMB-2201]	10

The remaining lines, values ahead:

LC retention time [min]	SMILES
4.98	O=C(NCCN1CCOCC1)c1ccc(Cl)cc1 [Moclobemide]
6.63	CCOc1cc(NC(C)=O)ccc1C(=O)OC [Ethopabate]
6.27	CCOc1ccc(NC(=O)CC(C)O)cc1 (configuration not stated) [Bucetin]
8.86	COC(=O)COCCN1CCN(C(c2ccccc2)c2ccc(Cl)cc2)CC1 (configuration not stated) [Cetirizine-Methyl ester]
6.79	CCN(CCCCOC(=O)c1ccc(OC)c(OC)c1)C(C)Cc1ccc(OC)cc1 (configuration not stated) [Mebeverine]
5.56	CC(=O)NCC1CN(c2ccc(N3CCOCC3)c(F)c2)C(=O)O1 (configuration not stated) [Linezolid]
3.88	CC(CCCNCCO)Nc1ccnc2cc(Cl)ccc12 (configuration not stated) [Chloroquine-Desethylhydroxy]
5.15	CN(C)CCCC1(c2ccc(F)cc2)OCc2cc(C(N)=O)ccc21 (configuration not stated) [Citalopram amide]
7.86	OC(CCN1CCCCC1)(c1ccccc1)C1CCCCC1 (configuration not stated) [Trihexyphenidyl. Benzhexol]
4.36	Cc1ccsc1C=CC1=NCCCN1C [Morantel]
1.43	Nc1[nH]c(=O)ncc1F [Cytosine-5-Fluoro (broad peak)]
3.56	CCOc1ccc(S(=O)(=O)O)c2cccnc12 [Actinoquinol]
12	CC1COC(=O)c2cc3c(cc21)C(C)(C)C(C)C3(C)C (configuration not stated) [Galaxolidone]
6.08	CC1(C)OC2COC3(COS(N)(=O)=O)OC(C)(C)OC3C2O1 (configuration not stated) [Topiramate]
3.09	Nc1cc(Cl)c(NC2=NCCN2)c(Cl)c1 [Apraclonidin]
5.11	COc1ccccc1OCC(O)CO (configuration not stated) [Guaifenesin]
5.78	O=C1CC2(CCCC2)CC(=O)N1CCCCN1CCN(c2ncccn2)CC1 [Buspirone]
9.9	COc1ccc2c(c1)c(CC(=O)OCC(=O)O)c(C)n2C(=O)c1ccc(Cl)cc1 [Acemetacin]
7.09	Cc1cnc(NC(=O)C2=C(O)c3ccccc3S(=O)(=O)N2C)s1 [Meloxicam]
8.19	CCCCc1nc(Cl)c(CO)n1Cc1ccc(-c2ccccc2-c2nn[nH]n2)cc1 [Losartan]
8.27	N=C1CN(O)C(c2ccccc2)=c2cc(Cl)ccc2=N1 [Chlordiazepoxide-Desmethyl]
4.88	CC(C)(C)NCC(O)COc1nsnc1N1CCOCC1 (configuration not stated) [Timolol]

LC retention time [min]	SMILES
7.75	Cc1cc(C(C)(C)C)cc(C)c1CC1=NCCN1 [Xylometazoline]
5.47	O=C(Nc1ccc(C(=O)O)c(O)c1)c1ccccc1 [Salicylic acid-4-Benzamido]
9.68	COC(=O)Nc1ccc(Cl)c(Cl)c1 [SWEP.MCC]
6.14	CC(C)CC1Nc2cc(Cl)c(S(N)(=O)=O)cc2S(=O)(=O)N1 (configuration not stated) [Butizide]
3.16	CC(C)Nc1nc(N)[nH]c(=O)n1 [Atrazine-desethyl-2-hydroxy (=Prometon-Hydroxy-Desisopropyl)]
8.52	CN(CC=Cc1ccccc1)Cc1cccc2ccccc12 [Naftifine]
8.26	CN1CC(=O)N2C(Cc3c([nH]c4ccccc34)C2c2ccc3c(c2)OCO3)C1=O (configuration not stated) [Tadalafil]
8.28	OCCOCCN1CCN(C(c2ccccc2)c2ccc(Cl)cc2)CC1 (configuration not stated) [Hydroxyzine]
12	CCC(C)C(=O)OC1CC(C)C=C2C=CC(C)C(CCC3CC(O)CC(=O)O3)C21 (configuration not stated) [Lovastatin]
3.96	Cc1nc(C)c(Cl)c(NS(=O)(=O)c2ccc(N)cc2)n1 [Sulfaclomide]
3.98	CCN(CCO)CCCC(C)Nc1ccnc2cc(Cl)ccc12 (configuration not stated) [Chloroquine-Hydroxy]
8.08	CNCCCC12CCC(c3ccccc31)c1ccccc12 [Maprotiline]
8.51	CNCCC=C1c2ccccc2CCc2ccccc21 [Triptyline-Nor]
10.7	CCC1=C(C)CN(C(=O)NCCc2ccc(S(=O)(=O)NC(=O)NC3CCC(C)CC3)cc2)C1=O (configuration not stated) [Glimepiride]
6.94	CN1CCN2c3ccccc3Cc3ccccc3C2C1 (configuration not stated) [Mianserine]
8.68	COc1ccc2cccc(CCNC(C)=O)c2c1 [Agomelatine]
9.93	OCCN1CCN(CCCN2c3ccccc3Sc3ccc(C(F)(F)F)cc32)CC1 [Fluphenazine]
4.64	CCN1CCN(c2cc3c(cc2F)c(=O)c(C(=O)O)cn3C2CC2)CC1 [Enrofloxacin]
9.99	CN(C)C(=O)Nc1ccc(Oc2ccc(Cl)cc2)cc1 [Chloroxuron (Chloroxifenidim)]
2.09	CC(=O)Nc1c(I)c(C(=O)O)c(I)c(C(=O)NCCO)c1I [Ioxitalamin acid]
6.88	c1ccc2scnc2c1 [Benzothiazole (BTH)]
